This is an account of results in patent publication US20250011288A1 (BRISTOL-MYERS SQUIBB COMPANY, priority 2021, published 2025).

The experiment deals with T1, human RXFP1 (Homo sapiens, UniProt Q9HBX9).
T1 construct: expressed in transfected cells
T1 sequence (Q9HBX9 1-757): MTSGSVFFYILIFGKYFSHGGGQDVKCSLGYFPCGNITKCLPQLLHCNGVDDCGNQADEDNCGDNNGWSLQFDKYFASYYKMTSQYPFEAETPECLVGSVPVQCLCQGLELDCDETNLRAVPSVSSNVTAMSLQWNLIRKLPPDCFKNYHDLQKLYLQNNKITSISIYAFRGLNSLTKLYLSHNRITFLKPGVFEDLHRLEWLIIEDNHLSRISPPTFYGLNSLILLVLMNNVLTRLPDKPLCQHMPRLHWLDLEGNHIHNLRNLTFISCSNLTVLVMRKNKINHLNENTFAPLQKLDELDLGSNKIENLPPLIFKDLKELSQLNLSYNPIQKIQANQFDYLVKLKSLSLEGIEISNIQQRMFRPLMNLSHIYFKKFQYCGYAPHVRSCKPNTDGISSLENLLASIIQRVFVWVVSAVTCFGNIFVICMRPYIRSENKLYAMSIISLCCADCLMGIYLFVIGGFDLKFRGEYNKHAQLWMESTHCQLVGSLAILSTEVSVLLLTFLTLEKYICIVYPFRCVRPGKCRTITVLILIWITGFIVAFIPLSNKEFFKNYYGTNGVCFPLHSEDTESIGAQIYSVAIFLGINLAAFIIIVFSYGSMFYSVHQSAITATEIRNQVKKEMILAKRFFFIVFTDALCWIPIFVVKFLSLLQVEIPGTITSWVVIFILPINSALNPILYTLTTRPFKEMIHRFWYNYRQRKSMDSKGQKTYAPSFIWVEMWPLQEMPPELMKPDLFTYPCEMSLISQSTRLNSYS
As to the kind of experiment: human RXFP1 (hRXFP1) HEK293 cAMP assay (HTRF). In kind it is cell-based. Particulars: HEK293 cells stably expressing human RXFP1, 30 min at room temperature. Put shortly: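 Intracellular cAMP was quantified by HTRF after a 30 min room-temperature exposure of hRXFP1-HEK293 cells (1500/well) to compound at 0.010 nM–50 µM final, 2% DMSO. Buffer was HBSS with 20 mM HEPES, 0.05% BSA and 0.5 mM IBMX; values came from a 4-parameter logistic fit.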
Turning to `COc1ncc(C2=NOC3CC(O)CC23)cc1C(=O)N[C@H]1[C@@H](C(=O)Nc2ccc(F)c(C(F)(F)F)c2)[C@H]2CC[C@@H]1/C2=C\C1CCCC1` (stereo partly drawn) [Example 126, N-((1R,2R,3S,4R,Z)-7-(cyclopentylmethylene)-3-((4-fluoro-3-(trifluoromethyl)phenyl)carbamoyl)bicyclo[2.2.1]heptan-2-yl)-5-(5-hydroxy-3a,5,6,6a-tetrahydro-4H-cyclopenta[d]isoxazol-3-yl)-2-methoxynicotinamide], the concentration giving a half-maximal response (EC50) was determined as 4.2 nM.
Consider `COc1cn(CCS(C)(=O)=O)nc1C(=O)N[C@H]1[C@@H](C(=O)Nc2ccc(F)c(C(F)(F)F)c2)[C@H]2CC[C@@H]1/C2=C\C1CC1` [Example 77, N-[(1R,2R,3S,4R,7Z)-7-(cyclopropylmethylidene)-3-{[4-fluoro-3-(trifluoromethyl)phenyl]carbamoyl}bicyclo[2.2.1]heptan-2-yl]-1-(2-methanesulfonylethyl)-4-methoxy-1H-pyrazole-3-carboxamide], for which the response was half-maximal at 71 nM (EC50).
`COc1ncc(-c2cc([C@H](OC(=O)NC3CC3)C(F)(F)F)ccc2F)cc1C(=O)N[C@H]1[C@@H](C(=O)Nc2ccc(F)c(C(F)(F)F)c2)[C@H]2CC[C@@H]1/C2=C\CCC(F)(F)F` [Example 165, (1S)-2,2,2-trifluoro-1-[4-fluoro-3-(5-{[(1R,2R,3S,4R, 7Z)-3-{[4-fluoro-3-(trifluoromethyl)phenyl]carbamoyl}-7-(4,4,4-trifluorobutylidene)bicyclo[2.2.1]heptan-2-yl]carbamoyl}-6-methoxypyridin-3-yl)phenyl]ethyl N-cyclopropyl-carbamate] returned a concentration giving a half-maximal response (EC50) of 1.2 nM.
In turn, `COc1ncc(C2=NOC(C)(CO)C2)cc1C(=O)N[C@H]1[C@@H](C(=O)Nc2ccc(F)c(C(F)(F)F)c2)[C@H]2CC[C@@H]1/C2=C\C1CC1` (stereo partly drawn) [Example 157, N-[(1R,2R,3S,4R, 7Z)-7-(cyclopropyl-methylidene)-3-{[4-fluoro-3-(trifluoromethyl)phenyl]carbamoyl}bicyclo[2.2.1]heptan-2-yl]-5-[5-(hydroxymethyl)-5-methyl-4,5-dihydro-1,2-oxazol-3-yl]-2-methoxypyridine-3-carboxamide] showed an EC50 of 5.6 nM.
With `COc1ncc(-c2cccc(C(=O)O)c2)cc1C(=O)N[C@@H]1C2CCC(/C2=C/C(F)(F)F)[C@@H]1C(=O)Nc1ccc(F)c(C(F)(F)F)c1` (stereo partly drawn) [Example 29, 3-(5-{[(2R,3S,7Z)-3-{[4-fluoro-3-(trifluoromethyl)phenyl]carbamoyl}-7-(2,2,2-trifluoroethylidene)bicyclo[2.2.1]heptan-2-yl]carbamoyl}-6-methoxypyridin-3-yl)benzoic acid] the figure was 136 nM; with `COc1ncc(C2=NOC3CC(C)(CO)CC23)cc1C(=O)N[C@H]1[C@@H](C(=O)N[C@H](C)C2(C)CC2)[C@H]2CC[C@@H]1/C2=C\C1CC1` (stereo partly drawn) [Example 177, N-[(1R,2R,3S,4R, 7Z)-7-(cyclopropyl-methylidene)-3-{[(1R)-1-(1-methylcyclo-propyl)ethyl]carbamoyl}bicyclo[2.2.1]heptan-2-yl]-5-[5-(hydroxymethyl)-5-methyl-3aH,4H,5H,6H, 6aH-cyclopenta[d][1,2]oxazol-3-yl]-2-methoxypyridine-3-carboxamide], 3.3 nM.
`COc1ncc(C2=NOC3CC(C(O)C(F)(F)F)CC23)cc1C(=O)N[C@H]1[C@@H](C(=O)N[C@H](C)C2(C)CC2)[C@H]2CC[C@@H]1/C2=C\C1CC(F)(F)C1` (stereo partly drawn) [Example 170, N-[(1R,2R,3S,4R, 7Z)-7-[(3,3-difluorocyclobutyl)methylidene]-3-{[(1R)-1-(1-methylcyclo-propyl)ethyl]carbamoyl}bicyclo[2.2.1]heptan-2-yl]-2-methoxy-5-[5-(2,2,2-trifluoro-1-hydroxyethyl)-3aH,4H,5H,6H, 6aH-cyclopenta[d] [1,2]oxazol-3-yl]pyridine-3-carboxamide] came in with an EC50 of 3.3 nM.
